For test [1], the target named is hPARG (C-terminal His6-tag) (Homo sapiens (Human), UniProt Q86W56). Nature of the test: PARG Enzymatic Activity Assay (HTRF). The class given is biochemical. The settings on record: hPARG 65 pM final, biotinylated-NAD ribosylated PARP1 8 nM final. In outline:
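Readout is time-resolved fluorescence at 620 and 665 nm after 60 min RT detection with streptavidin-Eu cryptate and anti-6HIS-XL665; IC50 by 4-parameter fit, 1% DMSO and no-enzyme controls. Reaction: 8 nM final ribosylated PARP1 substrate for 10 min RT, following 60 min RT enzyme (65 pM)–compound preincubation in Tris pH 7.4 buffer with EDTA, DTT, KCl.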

In another test the test system is Kuramochi cell line. The test can be described thus: Cell Viability Assay (Cell Titer-Glo, 7 days). The settings on record: 168 h, Kuramochi cells, 7 days incubation, read-out: PARG Cell viability (IC50). The class given is cell-based. In outline: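 IC50 from a four-parameter fit of CellTiter-Glo luminescence, scaled between DMSO-treated (high) and medium-only (low) wells. Kuramochi cells (400/well, RPMI/10% FBS) exposed 7 days at 37 °C to 9 concentrations, 3-fold steps, in duplicate.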
On the technique in general: In ATP-based viability assays light output follows the ATP content of the culture.

Bounds are passed on as bounds.

As a reminder, the IC50 is the concentration that gives 50% inhibition.

Sequence of hPARG (C-terminal His6-tag) (Q86W56 whole entry): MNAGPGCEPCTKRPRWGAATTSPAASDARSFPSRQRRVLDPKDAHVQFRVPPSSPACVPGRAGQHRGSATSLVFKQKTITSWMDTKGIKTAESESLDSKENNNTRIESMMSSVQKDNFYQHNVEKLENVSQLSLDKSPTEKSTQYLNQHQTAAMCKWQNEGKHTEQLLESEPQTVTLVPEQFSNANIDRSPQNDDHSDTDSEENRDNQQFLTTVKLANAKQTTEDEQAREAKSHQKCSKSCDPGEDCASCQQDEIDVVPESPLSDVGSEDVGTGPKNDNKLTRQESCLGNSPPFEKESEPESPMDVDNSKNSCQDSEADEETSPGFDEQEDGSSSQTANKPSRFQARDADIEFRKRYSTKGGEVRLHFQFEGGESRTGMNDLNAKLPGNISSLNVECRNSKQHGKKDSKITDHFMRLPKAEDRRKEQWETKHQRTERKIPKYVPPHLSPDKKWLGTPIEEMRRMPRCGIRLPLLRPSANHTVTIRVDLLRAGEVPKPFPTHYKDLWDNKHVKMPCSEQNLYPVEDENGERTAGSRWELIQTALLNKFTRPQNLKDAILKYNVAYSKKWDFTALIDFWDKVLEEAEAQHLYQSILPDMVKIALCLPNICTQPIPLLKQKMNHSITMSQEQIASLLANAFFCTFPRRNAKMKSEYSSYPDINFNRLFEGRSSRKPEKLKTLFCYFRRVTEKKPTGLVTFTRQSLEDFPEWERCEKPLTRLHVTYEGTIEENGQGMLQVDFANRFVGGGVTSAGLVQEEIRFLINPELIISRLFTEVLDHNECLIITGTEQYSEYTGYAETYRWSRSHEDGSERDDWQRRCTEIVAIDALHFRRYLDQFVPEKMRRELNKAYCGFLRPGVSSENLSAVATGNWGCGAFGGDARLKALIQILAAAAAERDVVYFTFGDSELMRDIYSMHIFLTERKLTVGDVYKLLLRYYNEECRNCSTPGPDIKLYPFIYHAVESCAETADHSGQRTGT

`CC(C)C(=O)N1CC=C(c2ncnc3c2c2cc(F)c(S(=O)(=O)NC4(C#N)CC4)cc2n3-c2nnc(C(F)F)s2)CC1` [Example 91, N-(1-Cyanocyclopropyl)-9-(5-(difluoromethyl)-1,3,4-thiadiazol-2-yl)-6-fluoro-4-(1-isobutyryl-1,2,3,6-tetrahydropyridin-4-yl)-9H-pyrimido[4,5-b]indole-7-sulfonamide]: the 50% inhibitory concentration (IC50) (in test [1]; in the test with Kuramochi cell line) was under 100 nM in each case.

Consider `N#CC1(NS(=O)(=O)c2ccc3c4c(N5CCC(F)CC5)ncnc4n(-c4nnc(C(F)F)s4)c3c2)CC1` [Example 51, N-(1-Cyanocyclopropyl)-9-(5-(difluoromethyl)-1,3,4-thiadiazol-2-yl)-4-(4-fluoropiperidin-1-yl)-9H-pyrimido[4,5-b]indole-7-sulfonamide], for which the figures for the IC50 (in test [1]; in the test with Kuramochi cell line) were under 100 nM and 100 to 1000 nM, respectively.

For the compound `N#CC1(NS(=O)(=O)c2ccc3c4c(N5CCN(CC6CC6)C(=O)C5)ncnc4n(-c4nnc(C(F)F)s4)c3c2)CC1` [Example 40, N-(1-Cyanocyclopropyl)-4-(4-(cyclopropylmethyl)-3-oxopiperazin-1-yl)-9-(5-(difluoromethyl)-1,3,4-thiadiazol-2-yl)-9H-pyrimido[4,5-b]indole-7-sulfonamide], the IC50 (in test [1]; in the test with Kuramochi cell line) was under 100 nM throughout.

For `N#CC1(NS(=O)(=O)c2ccc3c4c(C5CCN(C(=O)N6CCOCC6)CC5)ncnc4n(-c4nnc(C(F)F)s4)c3c2)CC1` [Example 140, N-(1-cyanocyclo-propyl)-9-(5-(difluoromethyl)-1,3,4-thiadiazol-2-yl)-4-(1-(morpholine-4-carbonyl)piperidin-4-yl)-9H-pyrimido [4,5-b]indole-7-sulfonamide], the IC50 (in test [1]; with Kuramochi cell line) was under 100 nM each time.

On to `N#CC1(NS(=O)(=O)c2ccc3c4c(N5CCC(O)CC5)ccnc4n(-c4nnc(C(F)F)s4)c3c2)CC1` [Example 80, N-(1-Cyanocyclopropyl)-9-(5-(difluoromethyl)-1,3,4-thiadiazol-2-yl)-4-(4-hydroxypiperidin-1-yl)-9H-pyrido[2,3-b]indole-7-sulfonamide], for which the IC50 (in test [1]; in the test with Kuramochi cell line) was 100 to 1000 nM throughout.

Take `CN(C)C(=O)N1CCN(c2ncnc3c2c2ccc(S(=O)(=O)NC4(C#N)CC4)cc2n3-c2nnc(C(F)F)s2)CC1` [Example 6, 4-(7-(N-(1-Cyanocyclopropyl)sulfamoyl)-9-(5-(difluoromethyl)-1,3,4-thiadiazol-2-yl)-9H-pyrimido[4,5-b]indol-4-yl)-N,N-dimethylpiperazine-1-carboxamide]: the IC50 (in test [1]; in the test on Kuramochi cell line) was under 100 nM each time.

In the case of `N#CC1(NS(=O)(=O)c2ccc3c4c(N5CCN6CCC[C@H]6C5)ncnc4n(-c4nnc(C(F)F)s4)c3c2)CC1` [Example 160, (S)—N-(1-Cyanocyclopropyl)-9-(5-(difluoromethyl)-1,3,4-thiadiazol-2-yl)-4-(hexahydropyrrolo[1,2-a]pyrazin-2(1H)-yl)-9H-pyrimido[4,5-b]indole-7-sulfonamide], the IC50 (in test [1]; in the test on Kuramochi cell line) was under 100 nM in each case.

`CN(C)C(=O)N1CC=C(c2ncnc3c2c2ccc(S(=O)(=O)NC4(C)CC4)cc2n3-c2nnc(C(F)F)s2)CC1` [Example 152, 4-(9-(5-(Difluoromethyl)-1,3,4-thiadiazol-2-yl)-7-(N-(1-methylcyclopropyl)sulfamoyl)-9H-pyrimido[4,5-b]indol-4-yl)-N,N-dimethyl-3,6-dihydropyridine-1(2H)-carboxamide]: the IC50 (in test [1]; in the test with Kuramochi cell line) was under 100 nM each time.

For `N#CC1(NS(=O)(=O)c2ccc3c4c(C5CCCCO5)ncnc4n(-c4nnc(C(F)F)s4)c3c2)CC1` (stereo not drawn) [Example 83, N-(1-cyanocyclopropyl)-9-(5-(difluoromethyl)-1,3,4-thiadiazol-2-yl)-4-(tetrahydro-2H-pyran-2-yl)-9H-pyrimido[4,5-b]indole-7-sulfonamide], the IC50 was under 100 nM in test [1] and 100 to 1000 nM in the test on Kuramochi cell line.

(Values after patent US20250388589A1, “TRICYCLIC HETEROCYCLIC DERIVATIVES, COMPOSITIONS AND USES THEREOF” (Danatlas Pharmaceuticals Co., Ltd., priority 2022, published 2025).)
